From PMC6421522, “Designing Dual Inhibitors of Anaplastic Lymphoma Kinase (ALK) and Bromodomain-4 (BRD4) by Tuning Kinase Selectivity” (Journal of Medicinal Chemistry, 2019)

How the values were obtained:
Format in all cases: binding
MEK1 = target: T1, MEK1 (Homo sapiens, UniProt Q02750); experiment: KINOMEscan scanEDGE; conditions: read-out: % Control (1µM)
T1 construct: purchased DiscoveRx KINOMEscan (scanEDGE); Thermo Fisher SelectScreen (Z'-LYTE) for PLK-1
Description: (§1) Compound X was assayed at 1 μM in the DiscoveRx KINOMEscan (scanEDGE) assay platform. The results for single-concentration binding interactions are reported as “%Ctrl” (DMSO = 100%Ctrl), where lower numbers indicate stronger hits.

KIT(V559D,T670I) = target: T2, KIT(V559D,T670I) (Homo sapiens, UniProt P10721, T670I/V559D); experiment: KINOMEscan scanEDGE; conditions: read-out: % Control (1µM)
T2 construct: purchased DiscoveRx KINOMEscan (scanEDGE); Thermo Fisher SelectScreen (Z'-LYTE) for PLK-1
Description: as §1

CDK9 = target: T3, CDK9 (Homo sapiens, UniProt P50750); experiment: KINOMEscan scanEDGE; conditions: read-out: % Control (1µM)
T3 construct: purchased DiscoveRx KINOMEscan (scanEDGE); Thermo Fisher SelectScreen (Z'-LYTE) for PLK-1
Description: as §1

MET = target: T4, MET (Homo sapiens, UniProt P08581); experiment: KINOMEscan scanEDGE; conditions: read-out: % Control (1µM)
T4 construct: purchased DiscoveRx KINOMEscan (scanEDGE); Thermo Fisher SelectScreen (Z'-LYTE) for PLK-1
Description: as §1

DCAMKL1 = target: T5, DCAMKL1 (Homo sapiens, UniProt O15075); experiment: KINOMEscan scanEDGE; conditions: read-out: % Control (1µM)
T5 construct: purchased DiscoveRx KINOMEscan (scanEDGE); Thermo Fisher SelectScreen (Z'-LYTE) for PLK-1
Description: as §1

TIE2 = target: T6, TIE2 (Homo sapiens, UniProt Q02763); experiment: KINOMEscan scanEDGE; conditions: read-out: % Control (1µM)
T6 construct: purchased DiscoveRx KINOMEscan (scanEDGE); Thermo Fisher SelectScreen (Z'-LYTE) for PLK-1
Description: as §1

PAK2 = target: T7, PAK2 (Homo sapiens, UniProt Q13177); experiment: KINOMEscan scanEDGE; conditions: read-out: % Control (1µM)
T7 construct: purchased DiscoveRx KINOMEscan (scanEDGE); Thermo Fisher SelectScreen (Z'-LYTE) for PLK-1
Description: as §1

JNK3 = target: T8, JNK3 (Homo sapiens, UniProt P53779); experiment: KINOMEscan scanEDGE; conditions: read-out: % Control (1µM)
T8 construct: purchased DiscoveRx (DiscoverX)
Description: as §1

AURKA = target: T9, AURKA (Homo sapiens, UniProt O14965); experiment: KINOMEscan scanEDGE; conditions: read-out: % Control (1µM)
T9 construct: purchased DiscoveRx KINOMEscan (scanEDGE); Thermo Fisher SelectScreen (Z'-LYTE) for PLK-1
Description: as §1

ERBB2 = target: T10, ERBB2 (Homo sapiens, UniProt P04626); experiment: KINOMEscan scanEDGE; conditions: read-out: % Control (1µM)
T10 construct: purchased DiscoveRx KINOMEscan (scanEDGE); Thermo Fisher SelectScreen (Z'-LYTE) for PLK-1
Description: as §1

FGFR2 = target: T11, FGFR2 (Homo sapiens, UniProt P21802); experiment: KINOMEscan scanEDGE; conditions: read-out: % Control (1µM)
T11 construct: purchased DiscoveRx KINOMEscan (scanEDGE); Thermo Fisher SelectScreen (Z'-LYTE) for PLK-1
Description: as §1

IKK-alpha = target: T12, IKK-alpha (Homo sapiens, UniProt O15111); experiment: KINOMEscan scanEDGE; conditions: read-out: % Control (1µM)
T12 construct: purchased DiscoveRx KINOMEscan (scanEDGE); Thermo Fisher SelectScreen (Z'-LYTE) for PLK-1
Description: as §1

SNARK = target: T13, SNARK (Homo sapiens, UniProt Q9H093); experiment: KINOMEscan scanEDGE; conditions: read-out: % Control (1µM)
T13 construct: purchased DiscoveRx KINOMEscan (scanEDGE); Thermo Fisher SelectScreen (Z'-LYTE) for PLK-1
Description: as §1

PLK4 = target: T14, PLK4 (Homo sapiens, UniProt O00444); experiment: KINOMEscan scanEDGE; conditions: read-out: % Control (1µM)
T14 construct: purchased DiscoveRx KINOMEscan (scanEDGE); Thermo Fisher SelectScreen (Z'-LYTE) for PLK-1
Description: as §1

AURKB = target: T15, AURKB (Homo sapiens, UniProt Q96GD4); experiment: KINOMEscan scanEDGE; conditions: read-out: % Control (1µM)
T15 construct: purchased DiscoveRx KINOMEscan (scanEDGE); Thermo Fisher SelectScreen (Z'-LYTE) for PLK-1
Description: as §1

PB1A(3) = target: T16, PB1A(3) (Homo sapiens, UniProt Q86U86); experiment: Bromodomain thermal shift screening (DSF); conditions: Group VIII
T16 construct: Bromodomain thermal shift screening data for 16k
Description: (§2) BRD4 thermal shift was measured in a differential scanning fluorimetry (DSF) assay. The assay was performed on a Stratagene Mx3005P system quantitative polymerase chain reaction (qPCR). The assay was performed in 96-well plates with 20 μL of protein at 2 μM in DSF-assay buffer (10 mM HEPES pH 7.5, 500 mM NaCl) to which 4 μL of Sypro orange dye and 0.4 μL of 10 μM compound in DMSO was added. The plate was sealed and centrifuged (1 min, 1000 rpm), and the qPCR machine was used to detect SYPRO fluorescence while increasing the temperature from 25 to 95 °C in 71 cycles. The sigmoidal part of the fluorescence signal was fitted using the Boltzmann equation, the points of change were defined, and the thermal shift was calculated by subtracting the protein/DMSO Tm shift from the protein/compound Tm shift.

BRD2(1) = target: T17, BRD2(1) (Homo sapiens, UniProt P25440); experiment: Bromodomain thermal shift screening (DSF); conditions: Group II (BET)
T17 construct: BRD2(1)
Description: as §2

TAF1A(2) = target: T18, TAF1A(2) (Homo sapiens, UniProt P21675); experiment: Bromodomain thermal shift screening (DSF); conditions: Group VII
T18 construct: Bromodomain thermal shift screening data for 16k
Description: as §2

SMARCA4A = target: T19, SMARCA4A (Homo sapiens, UniProt P51532); experiment: Bromodomain thermal shift screening (DSF); conditions: Group VIII
T19 construct: Bromodomain thermal shift screening data for 16k
Description: as §2

EP300 = target: T20, EP300 (Homo sapiens, UniProt Q09472); experiment: Bromodomain thermal shift screening (DSF); conditions: Group III
T20 construct: Bromodomain thermal shift screening data for 16k
Description: as §2

TAF1LA(1) = target: T21, TAF1LA(1) (Homo sapiens, UniProt Q8IZX4); experiment: Bromodomain thermal shift screening (DSF); conditions: Group VII
T21 construct: Bromodomain thermal shift screening data for 16k
Description: as §2

BRDT(2) = target: T22, BRDT(2) (Homo sapiens, UniProt Q58F21); experiment: Bromodomain thermal shift screening (DSF); conditions: Group II (BET)
T22 construct: Bromodomain thermal shift screening data for 16k
Description: as §2

PB1A(5) = target: T23, PB1A(5) (Homo sapiens, UniProt Q86U86); experiment: Bromodomain thermal shift screening (DSF); conditions: Group VIII
T23 construct: Bromodomain thermal shift screening data for 16k
Description: as §2

TAF1A(1) = target: T24, TAF1A(1) (Homo sapiens, UniProt P21675); experiment: Bromodomain thermal shift screening (DSF); conditions: Group VII
T24 construct: Bromodomain thermal shift screening data for 16k
Description: as §2

WDR9 = experiment: Bromodomain thermal shift screening (DSF); conditions: Group VII
Description: as §2

BRD2(2) = target: T25, BRD2(2) (Homo sapiens, UniProt P25440); experiment: Bromodomain thermal shift screening (DSF); conditions: Group II (BET)
T25 construct: BRD2(2)
Description: as §2

TRIM33B = experiment: Bromodomain thermal shift screening (DSF); conditions: Group V
Description: as §2

SMARCA2A = target: T26, SMARCA2A (Homo sapiens, UniProt P51531); experiment: Bromodomain thermal shift screening (DSF); conditions: Group VIII
T26 construct: Bromodomain thermal shift screening data for 16k
Description: as §2

PB1A(1) = target: T27, PB1A(1) (Homo sapiens, UniProt Q86U86); experiment: Bromodomain thermal shift screening (DSF); conditions: Group VIII
T27 construct: Bromodomain thermal shift screening data for 16k
Description: as §2

SP100 = target: T28, SP100 (Homo sapiens, UniProt P23497); experiment: Bromodomain thermal shift screening (DSF); conditions: Group V
T28 construct: Bromodomain thermal shift screening data for 16k
Description: as §2

BRD3(1) = target: T29, BRD3(1) (Homo sapiens, UniProt Q15059); experiment: Bromodomain thermal shift screening (DSF); conditions: Group II (BET)
T29 construct: BRD3(1)
Description: as §2

SMARCA2B = target: T30, SMARCA2B (Homo sapiens, UniProt P51531); experiment: Bromodomain thermal shift screening (DSF); conditions: Group VIII
T30 construct: Bromodomain thermal shift screening data for 16k
Description: as §2

BRD1 = target: T31, BRD1 (Homo sapiens, UniProt O95696); experiment: Bromodomain thermal shift screening (DSF); conditions: Group IV
T31 construct: Bromodomain thermal shift screening data for 16k
Description: as §2

BRD3(2) = target: T32, BRD3(2) (Homo sapiens, UniProt Q15059); experiment: Bromodomain thermal shift screening (DSF); conditions: Group II (BET)
T32 construct: BRD3(2)
Description: as §2

TAF1LA(2) = target: T33, TAF1LA(2) (Homo sapiens, UniProt Q8IZX4); experiment: Bromodomain thermal shift screening (DSF); conditions: Group VII
T33 construct: Bromodomain thermal shift screening data for 16k
Description: as §2

BRD4(2) = target: T34, BRD4(2) (Homo sapiens, UniProt O60885); experiment: Bromodomain thermal shift screening (DSF); conditions: Group II (BET)
T34 construct: BRD4(2)
Description: as §2

BRPF1A = target: T35, BRPF1A (Homo sapiens, UniProt P55201); experiment: Bromodomain thermal shift screening (DSF); conditions: Group IV
T35 construct: Bromodomain thermal shift screening data for 16k
Description: as §2

T26 sequence (P51531 1378-1506 limits assumed): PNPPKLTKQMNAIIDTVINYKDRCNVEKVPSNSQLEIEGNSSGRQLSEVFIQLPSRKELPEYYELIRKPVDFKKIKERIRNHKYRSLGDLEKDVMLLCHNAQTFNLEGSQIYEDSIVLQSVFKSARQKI
T15 sequence (Q96GD4 whole entry): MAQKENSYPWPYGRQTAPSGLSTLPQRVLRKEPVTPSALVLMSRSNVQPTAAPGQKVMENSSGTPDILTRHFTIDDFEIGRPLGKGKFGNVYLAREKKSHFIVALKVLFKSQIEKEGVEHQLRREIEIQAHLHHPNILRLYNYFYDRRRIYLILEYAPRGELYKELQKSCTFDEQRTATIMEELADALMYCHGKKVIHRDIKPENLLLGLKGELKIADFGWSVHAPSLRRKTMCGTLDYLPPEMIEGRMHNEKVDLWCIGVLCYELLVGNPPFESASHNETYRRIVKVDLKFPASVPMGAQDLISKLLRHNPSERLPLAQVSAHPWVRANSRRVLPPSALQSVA
T33 sequence (Q8IZX4 1517-1626 limits assumed): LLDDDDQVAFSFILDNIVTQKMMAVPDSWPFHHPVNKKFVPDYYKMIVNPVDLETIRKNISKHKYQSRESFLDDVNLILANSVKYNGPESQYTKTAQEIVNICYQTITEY
T21 sequence (Q8IZX4 1395-1503 limits assumed): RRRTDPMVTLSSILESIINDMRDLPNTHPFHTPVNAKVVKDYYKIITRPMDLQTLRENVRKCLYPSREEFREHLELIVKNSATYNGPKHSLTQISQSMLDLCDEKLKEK
T30 sequence (P51531 1373-1493 isoform P51531-2 limits assumed): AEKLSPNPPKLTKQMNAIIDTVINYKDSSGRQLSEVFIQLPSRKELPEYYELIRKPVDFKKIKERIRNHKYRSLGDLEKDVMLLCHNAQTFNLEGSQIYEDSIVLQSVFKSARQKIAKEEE
T25 sequence (P25440 344-453 limits assumed, species assumed): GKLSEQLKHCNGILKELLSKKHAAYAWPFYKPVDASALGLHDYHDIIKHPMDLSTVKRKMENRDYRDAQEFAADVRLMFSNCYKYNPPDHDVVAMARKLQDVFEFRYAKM
T17 sequence (P25440 74-180 limits assumed, species assumed): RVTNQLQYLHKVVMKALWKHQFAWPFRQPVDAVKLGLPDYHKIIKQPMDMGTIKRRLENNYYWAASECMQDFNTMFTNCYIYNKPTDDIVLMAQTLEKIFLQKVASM
T16 sequence (Q86U86 381-487 limits assumed): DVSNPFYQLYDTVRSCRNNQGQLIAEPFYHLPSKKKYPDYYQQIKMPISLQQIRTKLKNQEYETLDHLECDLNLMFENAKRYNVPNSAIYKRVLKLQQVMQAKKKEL
T23 sequence (Q86U86 653-763 limits assumed): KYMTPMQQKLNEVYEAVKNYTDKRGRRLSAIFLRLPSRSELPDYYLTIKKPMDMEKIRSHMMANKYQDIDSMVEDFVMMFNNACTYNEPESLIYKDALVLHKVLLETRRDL
T13 sequence (Q9H093 whole entry): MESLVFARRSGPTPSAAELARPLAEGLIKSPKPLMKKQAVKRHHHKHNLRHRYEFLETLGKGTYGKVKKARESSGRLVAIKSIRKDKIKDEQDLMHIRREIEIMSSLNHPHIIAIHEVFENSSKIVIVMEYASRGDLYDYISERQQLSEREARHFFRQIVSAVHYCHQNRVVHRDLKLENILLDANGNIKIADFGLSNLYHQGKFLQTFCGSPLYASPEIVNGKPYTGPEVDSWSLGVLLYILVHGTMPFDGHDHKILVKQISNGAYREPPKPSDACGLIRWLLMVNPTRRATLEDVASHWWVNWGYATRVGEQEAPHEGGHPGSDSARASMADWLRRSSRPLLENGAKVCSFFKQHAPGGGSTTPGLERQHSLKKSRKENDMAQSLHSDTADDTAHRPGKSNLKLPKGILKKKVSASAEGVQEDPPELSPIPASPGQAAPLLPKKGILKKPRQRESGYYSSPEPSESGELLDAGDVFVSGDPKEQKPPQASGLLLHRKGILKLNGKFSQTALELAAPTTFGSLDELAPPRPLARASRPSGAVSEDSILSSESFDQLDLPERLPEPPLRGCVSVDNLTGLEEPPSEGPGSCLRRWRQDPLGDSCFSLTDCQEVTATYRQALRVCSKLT
T12 sequence (O15111 whole entry): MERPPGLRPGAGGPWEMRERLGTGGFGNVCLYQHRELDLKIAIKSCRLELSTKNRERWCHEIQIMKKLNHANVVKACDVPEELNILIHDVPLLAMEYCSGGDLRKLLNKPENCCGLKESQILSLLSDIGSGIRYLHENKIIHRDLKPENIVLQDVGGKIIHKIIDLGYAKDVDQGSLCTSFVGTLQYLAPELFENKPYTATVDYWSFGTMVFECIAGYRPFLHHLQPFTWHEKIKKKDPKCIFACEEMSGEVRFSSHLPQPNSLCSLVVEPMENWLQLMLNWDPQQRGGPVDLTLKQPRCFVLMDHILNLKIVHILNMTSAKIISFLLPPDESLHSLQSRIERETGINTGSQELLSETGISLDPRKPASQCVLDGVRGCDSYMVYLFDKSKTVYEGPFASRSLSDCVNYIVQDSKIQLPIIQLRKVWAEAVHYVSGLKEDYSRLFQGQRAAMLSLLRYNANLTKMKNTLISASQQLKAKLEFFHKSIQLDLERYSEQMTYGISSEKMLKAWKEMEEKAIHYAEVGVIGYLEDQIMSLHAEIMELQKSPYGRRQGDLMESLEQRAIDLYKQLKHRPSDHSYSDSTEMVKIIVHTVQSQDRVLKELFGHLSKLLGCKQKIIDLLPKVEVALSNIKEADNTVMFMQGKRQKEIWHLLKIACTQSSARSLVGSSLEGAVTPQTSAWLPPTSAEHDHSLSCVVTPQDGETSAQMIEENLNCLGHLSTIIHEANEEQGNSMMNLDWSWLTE
T14 sequence (O00444 whole entry): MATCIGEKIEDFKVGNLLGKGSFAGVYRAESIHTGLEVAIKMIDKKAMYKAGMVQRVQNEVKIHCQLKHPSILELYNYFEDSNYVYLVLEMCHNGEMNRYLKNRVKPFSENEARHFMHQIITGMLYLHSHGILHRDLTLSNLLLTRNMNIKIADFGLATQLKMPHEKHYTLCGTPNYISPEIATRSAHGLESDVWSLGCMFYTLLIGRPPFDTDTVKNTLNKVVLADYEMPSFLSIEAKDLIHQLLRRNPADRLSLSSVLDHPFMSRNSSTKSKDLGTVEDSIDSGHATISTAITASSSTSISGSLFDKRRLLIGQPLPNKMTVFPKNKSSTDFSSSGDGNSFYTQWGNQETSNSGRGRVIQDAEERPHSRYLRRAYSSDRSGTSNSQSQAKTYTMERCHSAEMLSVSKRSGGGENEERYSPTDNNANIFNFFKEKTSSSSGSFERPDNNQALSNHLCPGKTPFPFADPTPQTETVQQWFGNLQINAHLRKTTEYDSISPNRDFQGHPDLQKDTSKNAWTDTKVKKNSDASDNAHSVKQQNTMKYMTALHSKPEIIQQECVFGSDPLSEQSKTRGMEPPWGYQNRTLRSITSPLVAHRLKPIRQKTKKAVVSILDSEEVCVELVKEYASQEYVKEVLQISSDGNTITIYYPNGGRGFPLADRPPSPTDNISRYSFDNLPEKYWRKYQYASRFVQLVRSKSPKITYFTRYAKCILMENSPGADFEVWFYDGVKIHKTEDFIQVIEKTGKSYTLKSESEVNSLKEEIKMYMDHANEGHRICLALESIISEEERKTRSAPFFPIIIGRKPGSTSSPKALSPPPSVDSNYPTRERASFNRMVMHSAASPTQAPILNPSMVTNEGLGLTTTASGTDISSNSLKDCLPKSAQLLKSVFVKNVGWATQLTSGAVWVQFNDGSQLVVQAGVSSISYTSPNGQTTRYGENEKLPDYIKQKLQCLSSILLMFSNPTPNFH
T5 sequence (O15075 whole entry): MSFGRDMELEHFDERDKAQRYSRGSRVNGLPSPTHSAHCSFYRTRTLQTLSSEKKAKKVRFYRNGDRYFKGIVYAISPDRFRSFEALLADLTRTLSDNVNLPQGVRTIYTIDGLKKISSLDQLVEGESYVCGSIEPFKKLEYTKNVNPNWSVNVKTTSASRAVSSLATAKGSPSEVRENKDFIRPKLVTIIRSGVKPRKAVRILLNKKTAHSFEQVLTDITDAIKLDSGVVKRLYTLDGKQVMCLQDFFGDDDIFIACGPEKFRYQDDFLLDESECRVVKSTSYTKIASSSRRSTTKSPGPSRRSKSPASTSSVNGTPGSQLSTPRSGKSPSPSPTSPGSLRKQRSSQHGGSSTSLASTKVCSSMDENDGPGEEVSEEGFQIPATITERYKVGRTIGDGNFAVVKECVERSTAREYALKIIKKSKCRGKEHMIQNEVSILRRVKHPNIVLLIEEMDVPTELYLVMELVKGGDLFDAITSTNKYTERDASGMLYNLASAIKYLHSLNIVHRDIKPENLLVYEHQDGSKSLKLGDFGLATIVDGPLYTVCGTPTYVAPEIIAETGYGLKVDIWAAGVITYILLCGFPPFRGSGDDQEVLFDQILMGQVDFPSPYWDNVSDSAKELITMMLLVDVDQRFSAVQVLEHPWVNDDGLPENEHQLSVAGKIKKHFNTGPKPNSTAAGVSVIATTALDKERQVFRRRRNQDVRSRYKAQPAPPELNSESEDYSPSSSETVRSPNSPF
T27 sequence (Q86U86 41-151 limits assumed): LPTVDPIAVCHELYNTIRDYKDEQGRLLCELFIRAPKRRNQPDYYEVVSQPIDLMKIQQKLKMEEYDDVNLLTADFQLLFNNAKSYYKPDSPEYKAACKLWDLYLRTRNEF
T9 sequence (O14965 whole entry): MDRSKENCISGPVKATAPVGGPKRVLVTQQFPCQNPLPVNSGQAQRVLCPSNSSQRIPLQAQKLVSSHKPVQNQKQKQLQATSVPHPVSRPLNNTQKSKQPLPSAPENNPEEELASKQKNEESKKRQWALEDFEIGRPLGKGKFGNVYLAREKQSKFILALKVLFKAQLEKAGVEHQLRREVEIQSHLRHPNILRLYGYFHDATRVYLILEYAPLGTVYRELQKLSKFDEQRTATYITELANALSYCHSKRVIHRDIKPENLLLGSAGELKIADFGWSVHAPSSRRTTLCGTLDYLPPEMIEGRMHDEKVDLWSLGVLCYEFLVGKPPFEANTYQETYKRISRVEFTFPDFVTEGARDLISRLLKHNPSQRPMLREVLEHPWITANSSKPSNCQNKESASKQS

remaining binding at 1 µM (MEK1): 100%
remaining binding at 1 µM (KIT(V559D,T670I)): 100%
remaining binding at 1 µM (CDK9): 100%
remaining binding at 1 µM (MET): 94%
remaining binding at 1 µM (DCAMKL1): 100%
remaining binding at 1 µM (TIE2): 99%
remaining binding at 1 µM (PAK2): 100%
remaining binding at 1 µM (JNK3): 39%
remaining binding at 1 µM (AURKA): 99%
remaining binding at 1 µM (ERBB2): 100%
remaining binding at 1 µM (FGFR2): 100%
remaining binding at 1 µM (IKK-alpha): 97%
remaining binding at 1 µM (SNARK): 100%
remaining binding at 1 µM (PLK4): 100%
remaining binding at 1 µM (AURKB): 86%
Thermal Shift (PB1A(3)): 0.35 K
Thermal Shift (BRD2(1)): -0.95 K
Thermal Shift (TAF1A(2)): -1.05 K
Thermal Shift (SMARCA4A): -4.5 K
Thermal Shift (EP300): -1 K
Thermal Shift (TAF1LA(1)): -3.4 K
Thermal Shift (BRDT(2)): 0.6 K
Thermal Shift (PB1A(5)): -0.7 K
Thermal Shift (TAF1A(1)): -0.45 K
Thermal Shift (BRD2(2)): 3.95 K
Thermal Shift (SMARCA2A): -2.4 K
Thermal Shift (PB1A(1)): 1.95 K
Thermal Shift (SP100): 0.05 K
Thermal Shift (BRD3(1)): 7.3 K
Thermal Shift (SMARCA2B): -0.35 K
Thermal Shift (BRD1): -0.15 K
Thermal Shift (BRD3(2)): 5.9 K
Thermal Shift (TAF1LA(2)): -2.9 K
Thermal Shift (BRD4(2)): 4.4 K
Thermal Shift (BRPF1A): 0.8 K
SMILES: CCOc1cc(C2CCN(C)CC2)ccc1Nc1ncc2c(n1)N(Cc1cc(C)cs1)[C@H](CC)C(=O)N2C [16k, (R)-2-((2-Ethoxy-4-(1-methylpiperidin-4-yl)phenyl)amino)-7-ethyl-5-methyl-8-((4-methylthiophen-2-yl)methyl)-7,8-dihydropteridin-6(5H)-one]
Thermal Shift (WDR9): -4.2 K
Thermal Shift (TRIM33B): -1.2 K
